Results: patent US11584728B2, “Compositions and methods for the prevention and/or treatment of mitochondrial disease, including Friedreich's ataxia” (STEALTH BIOTHERAPEUTICS INC., priority 2019, dated 2023)
pEC50: −log10 of the molar value. Like-named read-outs stand apart in the source and are kept apart here.

How the values were obtained:
[1] = test system: GM03665 cells; test: RSL3 Toxicity Assay (RSL3 Assay); format: cell-based, human; details: for EC50 / pEC50: Homo sapiens, GM03665 cells, RSL3 2 μM, 24 hours, MTT; for EC50: Table 3, mean of at least three measurements, nM printed in Table 7, read-out: RSL3 Assay EC50, Mean; for pEC50: Table 7, read-out: RSL3 Assay EC50
Method: Example 19: RSL3 Toxicity Assay (RSL3 Assay)
In brief, GM03665 cells (Coriell Institute) were seeded in 96-well plates (Sarstedt) in DMEM cell culture media containing 10% Fetal Bovine serum and 1% Penicillin-Streptomycin (Pen-Strep) antibiotic mix at the amount of 2×10^4/mL (100 μL or 2×10^3 cells per well). Cells were left to rest overnight at 37° C. in a humidified atmosphere with 5% CO2 to allow attachment of the cells to the culture plate. Test compounds were prepared as DMSO stocks (10 mM) and were serially diluted in cell culture media to obtain 2× working solutions. Cell media was discarded and replaced by 50 μL of test compound solutions or cell media with vehicle for control wells. Within 15 minutes, 2× working solution (4 μM) of 1S,3R-RSL3 (CAS #1219810-16-8, Sigma-Aldrich) (diluted from 5 mM DMSO stock in cell culture media) was added. Final reaction volume was 100 μL and final DMSO concentration in reaction was kept below 0.2% (v/v) and equal in all wells. Final RSL3 concentration was 2 μM and test compound final concentrations in reaction were up to 1000 nM. After 24 hours of incubation cell viability was assessed by MTT test. MTT (Sigma-Aldrich) solution 1 mg/mL in 1×PBS (pH=7,4) was prepared 1 hour before the assay and filtered through Filtropur S 0.2 filters (Sarstedt). Cell media with test compounds was discarded and 100 μL of MTT solution was added to cells. The plates were incubated for 2 hours at +37° C. Thereafter, the MTT solution was removed and 100 μL of isopropanol was added to dissolve sediment. Absorption at 570 and 650 nm was measured using Hidex Sense microplate reader.

[2] = test system: HepG2 human hepatocarcinoma cells; test: Rotenone ATP-Assay (Complex I by-pass); format: cell-based; details: for pEC50: Homo sapiens, 1 h
Method: Example 18: Rotenone ATP-Assay
Introduction: • This assay has been adapted from Haefeli R H, Erb M, Gemperli A C, Robay D, Courdier Fruh I, et al. (2011) NQO1-Dependent Redox Cycling of Idebenone: Effects on Cellular Redox Potential and Energy Levels. PLoS ONE 6(3): e17963. HepG2 human hepatocarcinoma cells were co-incubated with the electron transport chain Complex I toxin rotenone +/−compounds of interest and the corresponding effect on ATP synthesis was measured with a bioluminescent substrate.
Assay Experimental: • In brief, HepG2 cells were plated at 25,000 cells per well in low glucose (1 gram/Liter) DMEM medium +10% fetal calf serum and incubated for 24 hours. The following day, the media was decanted and subsequently replaced with glucose free/serum free DMEM which has been supplemented with 50 micromolar rotenone and compound of interest. Serial dilutions of compound were prepared in 3× dilutions beginning at 25 micromolar. The cells were incubated for 60 minutes in a humidified tissue culture incubator. Following incubation, ATP levels were quantified via bioluminescent assay (Promega […]) and readings were captured on a standard microplate reader.
Calculations: • ATP bioluminescence is plotted versus the log of compound of interest and data were used to generate EC50 values. Curve fitting was performed using a sigmoidal dose response curve fit function (GraphPad Prism software).
Robustness of curve fit was assessed as a quality control measure, with an R squared value of at least 0.80 being required for a successful curve fit. Compounds of interest showing an increase in ATP bioluminescence relative to vehicle control were verified in an independent biological replicate of n=3 technical replicates per dose.
Discussion: • This assay is a direct measure of the ability of compounds of interest to restore ATP production under conditions of inhibition of Complex I of the mitochondrial electron transport chain. As the majority of ATP produced via the electron transport chain is thought to derive from Complex I activity, significant impairment in Complex I function has dire biological consequences. Of note, Complex I mutations are thought to drive pathophysiology in multiple mitochondrial diseases, including Leigh syndrome and Leber's Hereditary Optic Neuropathy (LHON), while diminished Complex I activity and the resultant attenuation of ATP production has been shown in neurodegenerative diseases, including Friedreich's Ataxia, Parkinson's Disease and Huntington's Disease.

[3] = biological target: lipoxygenase-15 enzyme (Glycine max (Soybean) (Glycine hispida), UniProt P08170); test: Lipoxygenase-15 Assay (LO-15-Assay); format: biochemical; details: reduced (hydroquinone) form
[4] = test system: frataxin deficient fibroblasts (GM03665); test: Frataxin Deficient Fibroblast Viability Assay (BSO Assay); details: Homo sapiens, 48 h; for pEC50: read-out: BSO Assay; for EC50: read-out: EC50 (nM) BSO Assay
[5] = test system: Nrf-2; test: Nrf-2 Activation Assay (Nrf-2 Assay); format: cell-based, human; details: Table 7; GM03665 fibroblasts, 1 μM, 24 hours, qPCR of Nrf-2 responsive genes
Method: Example 21: Nrf-2 Activation Assay (Nrf-2 Assay)
This assay was developed internally and was designed to determine if the novel test compounds disclosed herein active Nrf-2 and thereby promote resolution of inflammation by the mechanism believed to be responsible for the activity of omaveloxolone.
Briefly, GM03665 Friedreich Ataxia patient fibroblasts were grown in 12 Well Plates (TC Cell+F) (Sarstedt, Nümbrecht Germany), at a density of 12×10^4 cells/per well in DMEM/F12 (Gibco, ThermoFisher Scientific, Waltham, Mass., USA) cell media supplemented with 10% FBS and 1% Pen/Strep. Cells were left to rest overnight at 37° C. in a humidified atmosphere with 5% CO2 to allow attachment of the cells to the culture plate. Before continuing assay visual inspection of each well was done by light microscopy to detect any possible bacterial and fungal contamination. […] After incubation, cell media was removed and total RNA from the cells was isolated using E.Z.N.A.® Total RNA Kit I (Omega Bio-tek, Norcross, Ga., USA) spin columns, and first-strand cDNA synthesis was carried out using a High Capacity cDNA Reverse Transcription Kit (Applied Biosystems™, Foster City, Calif.) following the manufacturer's instructions. qPCR analysis of gene expression was performed by mixing SYBR® Green Master Mix (Applied Biosystems™) with synthesized cDNA and forward and reverse primers. […] (60 cycles), and 95° C. for 60 seconds, followed by melt curve analysis at 72-95° C., 0.3° C./sec. The relative expression levels for each gene were calculated with the ΔΔCt method and normalized to the expression of REEP5 and SNRPD3 genes.

[6] = test system: intact HepG2 cells; test: Rotenone Oxygraph Assay (High-Resolution Respirometry of Intact HepG2 Cells); format: cell-based, human; details: rotenone 1 μM, compound 10 μM; for Percent increase in ATP (Rotenone Oxygraph Assay), Mean: Table 4; for Percent increase in ATP (Rotenone Oxygraph Assay), Mean / Rotenone Oxygraph Assay % Increase: intact HepG2 cells; for Rotenone Oxygraph Assay % Increase: Table 7
Method: Example 20: Rotenone Oxygraph Assay (High-Resolution Respirometry of Intact HepG2 Cells)
The Oxygraph-2k (O2k, OROBOROS INSTRUMENTS, Austria) was used for measurements of respiration of intact cells. The respirometry was performed in Dulbecco's Modified Eagle Medium (DMEM) high glucose without supplements. All experiments were performed at 37° C.
HepG2 cells (ATCC collection code HB-8065™) were cultured in 10 cm^2 culture dishes in DMEM high glucose medium supplemented with 10% fetal bovine serum (FBS) and 100 units/mL penicillin and 100 μg/mL streptomycin until approximately 90% confluence was reached. Immediately prior to performing the respirometric assay, the cells were washed with media without FBS, trypsinized and resuspended in DMEM high glucose without FBS.
The final concentration of intact cells in the O2k-chamber was 0.5·10^6/mL. After stabilization of respiration, the Complex I inhibitor, rotenone, at 1 μM final concentration was added to inhibit electron flux via Complex I. Then, compound to be tested was added at 10 μM final concentration, and the change in respiration rate of intact cells was monitored.

[7] = HepG2 cells, 50 micromolar rotenone, 60 minutes, ATP bioluminescence, read-out: EC50 Rotenone ATP Assay
[8] = Table 7, HepG2 cells, 50 micromolar rotenone, 60 minutes, read-out: Rotenone ATP Assay EC50

Question: For `CC1=C(C)C(=O)C(CC[C@](C)(O)CC/C=C(\C)CC/C=C(\C)CCC=C2COC2)=C(C)C1=O` [Compound E, 2-((R,6E,10E)-3-hydroxy-3,7,11-trimethyl-14-(oxetan-3-ylidene)tetradeca-6,10-dien-1-yl)-3,5,6-trimethylcyclohexa-2,5-diene-1,4-dione], which EC50 [1] is on record?
Answer: 73.2 nM

Question: What about the pEC50 [1] of the same compound?
Answer: 7.14

Question: What about the pEC50 [2, 7] of the same compound?
Answer: 5.52 to 6.00

Question: What about the pEC50 [2, 8] of the same compound?
Answer: 5.55

Question: And the “Activity in both the BSO Assay and the Rotenone ATP Assay (in words)” value ([2]; circumvent BSO induced cell death and restore ATP production when Complex I is inhibited)?
Answer: possess both activities

Question: What about the “Activity in the LO-15 assay (in words)” value [3] of the same compound?
Answer: outside of the range of the assay

Question: What about the pEC50 [4] of the same compound?
Answer: 7.19

Question: What about the EC50 [4] of the same compound?
Answer: < 100 nM

Question: What about the “Nrf-2 Assay” value [5] of the same compound?
Answer: Inactive

Question: For `CC1=C(C)C(=O)C(CC[C@@](C)(O)COCCC[Si](C)(C)C)=C(C)C1=O` [Compound M, (R)-2-(3-hydroxy-3-methyl-4-(3-(trimethylsilyl)propoxy)butyl)-3,5,6-trimethylcyclohexa-2,5-diene-1,4-dione], which EC50 [1] is on record?
Answer: 41.2 nM

Question: And the pEC50 [1]?
Answer: 7.39

Question: And the “Activity in the RSL3 assay (in words)” value ([1]; protection of Friedreich's ataxia fibroblasts from RSL3)?
Answer: active

Question: And the “Percent increase in ATP (Rotenone Oxygraph Assay), Mean” value [6]?
Answer: 56.6 +/− 11.3%

Question: What about the “Rotenone Oxygraph Assay % Increase” value [6] of the same compound?
Answer: 56.6 +/− 11.3%

Question: And the pEC50 [2, 7]?
Answer: 5.52 to 6.00

Question: What about the pEC50 [2, 8] of the same compound?
Answer: 5.87

Question: And the “Activity in the LO-15 assay (in words)” value [3]?
Answer: best result

Question: What about the pEC50 [4] of the same compound?
Answer: 7.21

Question: What about the “Nrf-2 Assay” value [5] of the same compound?
Answer: Inactive

Question: Which results are given for `CC(C)=CCC/C(C)=C/CC/C(C)=C/CC[C@@](C)(O)CCC1=C(C)C(=O)C(C)=C(C)C1=O` [Vatiquinone, reference compound]?
Answer: EC50 [1]: 56 nM; pEC50 [1]: 7.25; Percent increase in ATP (Rotenone Oxygraph Assay), Mean [6]: Inactive; Rotenone Oxygraph Assay % Increase [6]: Inactive; Activity in the Rotenone Oxygraph assay, Complex I by-pass (in words) [6]: inactive; pEC50 [2, 7]: < 5.52; Rotenone ATP Assay EC50, nM ([2]; Table 7, HepG2 cells, 50 micromolar rotenone, 60 minutes): Inactive; pEC50 [4]: 7.35; EC50 [4]: < 100 nM
